What was measured:
MC38 cells = assay: Anti-tumor vaccination study in C57BL/6 mice; type: in vivo, mouse
Description: FIG. 25A: C57Bl/6 mice were injected with either PBS or AP-4-139B pre-treated MC38 cells into the left flank. 10 days later, the same mice were injected with untreated MC38 cells in the right flank. […] Log rank test p<0.0001. FIG. 25B: Tumor growth measured in mice in FIG. 25A over 25 days. n=15 mice per group. Wilcox rank-sum test p<0.0001.
For in vivo metastasis assays, 8-10 week old male C57Bl/6 mice were injected with 4×10^5 MC38 cells. Mice were then treated with either vehicle or 10 mg/kg AP-4-139B every 48 hours for 3 weeks. At the end of the study, mice were euthanized, lungs were harvested and fixed in formalin for analysis of lung tumor nodules by H&E. For anti-tumor vaccination studies, MC38 cells were treated with 10 μM AP-4-139B for 48 h, resulting in approximately 20% cell death (as assessed by Trypan Blue staining). 2×10^6 pre-treated MC38 cells or PBS was inoculated subcutaneously into the left flank of 8-10 week old male C57BL/6 mice. Ten days later, mice were challenged on the right flank with 5×10^5 live MC38 cells, and tumor growth and incidence were monitored 3 times per week. The absence of tumors was scored as an indication for efficient antitumor vaccination.

MC38 and HT-29 cells = assay: Extracellular ATP release (CellTiter-Glo); type: cell-based
Description: FIG. 6A: 1×10^6 MC38 cells were injected subcutaneously into the right flank of 6-8-week-old male C57Bl/6 mice. Once tumors reached an approximate volume of 100 mm^3, mice were treated with AP-4-139B (10 mg/kg) every 48 hours. 20 days after the start of treatment, tumors were excised, weighed, minced and digested. Tumor-infiltrating and splenic conventional CD4 (cCD4) (Live CD45^+ DUMP^− CD3^+CD4^+Foxp3^−), Tregs (Live CD45^+ DUMP^− CD3^+CD4^+Foxp3^+), CD8 (Live CD45^+ DUMP^− CD3^+CD8^+) T-cells, and Dendritic Cells (Live CD45^+ DUMP^− CD3^−CD11c^+MHCII^+) numbers were assessed by flow cytometry. * p<0.05, n.s. not significant. n=8 mice per group. FIG. 6B: MC38 and HT-29 cells were treated with the indicated concentrations of AP-4-139B for either 8 or 24 hours; media was collected and subjected to WB for HMGB1. Data shown are representative of three technical replicates. FIG. 6C: MC38 and HT-29 cells were treated with the indicated concentrations of AP-4-139B for three hours and then assayed for extracellular ATP release. Each graphical representation indicates the mean±the standard deviation of three independent experiments relative to control (DMSO-treated) cells.
FIG. 6D: MC38 cells were treated with 5 μM AP-4-139B for 24 hours and subjected to flow cytometry, using Alexa488-tagged calreticulin antibody. *** p<0.001, n=4 biological replicates performed in duplicate. FIG. 6E: MC38 cells were treated with increasing concentrations of AP-4-139B, G-TPP, 17-AAG or Metformin for 3 hours and then assayed for extracellular ATP release. Three independent cultures were assayed for each treatment, and DMSO-treated cells were used as internal controls. Error bars represent standard deviation (SD).
The XF Cell Mito Stress Test was performed. Briefly, HT-29 (10,000 cells/well), IMR90 (15,000 cells/well), and 1205Lu (15,000 cells/well) were plated in Seahorse 96-well cell culture microplates, treated with the respective inhibitors for 24 hours, and subjected to the Seahorse XF Cell Mito Stress Test, according to the manufacturer's protocol (Agilent Technologies). For extracellular HMGB1 release, 1×10^6 MC38 cells were plated in 10-cm dishes. The next day, cells were treated with the indicated concentrations of AP-4-139B for 8 or 24 hours in serum-free media. Media was collected and spun down at 2,000 rpm for 5 minutes to pellet any remaining cells or debris. Media was then transferred to Amicon Ultra 15, 10K tubes and spun down at 4,000 rpm for 45 minutes, according to the manufacturer's protocol. […] For extracellular ATP release, ATP was measured using the CellTiter-Glo Kit (Promega catalog #G7570). […] 10 μl of CellTiter-Glo Reaction Mix was then mixed with 10 μl of culture media; the luminescence signal was detected using a luminometer.

SMILES: c1ccc(-c2cn3nc(CCCCCC[P+](c4ccccc4)(c4ccccc4)c4ccccc4)sc3n2)cc1 [AP-4-139B, Triphenyl(6-(6-phenylimidazo[2,1-b][1,3,4]thiadiazol-2-yl)hexyl)phosphonium bromide]
- tumor size in vaccine-treated mice (MC38 cells; over 25 days): markedly reduced compared with control
- mice that developed tumors on the right flank (MC38 cells; vaccinated with pre-treated MC38 cells, control 15 of 15): 3 of 15
- ATP release (MC38 and HT-29 cells; MC38 and HT-29, three hours): ATP release
- ATP release, comparison of compounds (MC38 and HT-29 cells; MC38 cells, increasing concentrations, 3 hours): most significant release of ATP
